Laboratory results published in patent US6525001B1, “Substituted pyrimidine and pyridine herbicides” (Mid-American Commercialization Corporation, priority 1997, dated 2003).

Tests used:
Type in all cases: in vivo
Set-up in all cases: key: 0 is no effect; 10 is complete control
[1] = system: bedstraw (Galium aparine); experiment: Test B pre-/postemergence; conditions: for Bedstraw plant response rating: Preemergence
Description: (§1) Seeds of bedstraw (Galium aparine), blackgrass (Alopecurus myosuroides), broadleaf signalgrass (Brachiaria decumbens), cocklebur (Xanthium strumarium), corn (Zea mays), crabgrass (Digitaria sanguinalis), giant foxtail (Setaria faberii), lambsquarters (Chenopodium album), momingglory (Ipomoea hederacea), pigweed (Amaranthus retroflexus), rape (Brassica napus), soybean (Glycine max), sugar beet (Beta vulgaris), velvetleaf (Abutilon theophrasti), wheat (Triticum aestivum), wild oat (Avena fatua) and purple nutsedge (Cyperus rotundus) tubers were planted and treated preemergence with test chemicals formulated in a non-phytotoxic solvent mixture which included a surfactant.
(§2) At the same time, these crop and weed species were also treated with postemergence applications of test chemicals formulated in the same manner. Plants ranged in height from 2 to 18 cm (1- to 4-leaf stage) for postemergence treatments. Plant species in the flood test consisted of rice (Oryza sativa), smallflower flatsedge (Cyperus difformis), duck salad (Heteranthera limosa) and bamyardgrass (Echinochloa crus-galli) grown to the 2-leaf stage for testing. Treated plants and controls were maintained in a greenhouse for twelve to sixteen days, after which all species were compared to controls and visually evaluated. Plant response ratings, summarized in Table B, are based on a scale of 0 to 10 where 0 is no effect and 10 is complete control. A dash (−) response means no test result.

[2] = system: blackgrass (Alopecurus myosuroides); experiment: Test B pre-/postemergence; conditions: for Blackgrass plant response rating: Preemergence
Description: as §1, §2

[3] = system: broadleaf signalgrass (Brachiaria decumbens); experiment: Test B pre-/postemergence; conditions: for B. signalgrass plant response rating: Preemergence
Description: as §1, §2

[4] = system: cocklebur (Xanthium strumarium); experiment: Test B pre-/postemergence; conditions: for Cocklebur plant response rating: Preemergence
Description: as §1, §2

corn (Zea mays) = experiment: Test B pre-/postemergence; conditions: for Corn plant response rating: Preemergence
Description: as §1, §2

[5] = system: crabgrass (Digitaria sanguinalis); experiment: Test B pre-/postemergence; conditions: for Crabgrass plant response rating: Preemergence
Description: as §1, §2

[6] = system: giant foxtail (Setaria faberii); experiment: Test B pre-/postemergence
Description: as §1, §2

[7] = system: momingglory (Ipomoea hederacea); experiment: Test B pre-/postemergence
Description: as §1, §2

[8] = system: pigweed (Amaranthus retroflexus); experiment: Test B pre-/postemergence
Description: as §1, §2

[9] = system: purple nutsedge (Cyperus rotundus); experiment: Test B pre-/postemergence
Description: as §1, §2

rape (Brassica napus) = experiment: Test B pre-/postemergence
Description: as §1, §2

soybean (Glycine max) = experiment: Test B pre-/postemergence
Description: as §1, §2

[10] = system: sugar beet (Beta vulgaris); experiment: Test B pre-/postemergence
Description: as §1, §2

[11] = system: velvetleaf (Abutilon theophrasti); experiment: Test B pre-/postemergence
Description: as §1, §2

[12] = system: wheat (Triticum aestivum); experiment: Test B pre-/postemergence
Description: as §1, §2

wild oat (Avena fatua) = experiment: Test B pre-/postemergence
Description: as §1, §2

[13] = system: bamyardgrass (Echinochloa crus-galli); experiment: Test B flood test
Method in brief: (§3)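 Read-out is a visual response score from 0 (no effect) to 10 (complete control), assigned by comparison with untreated controls. Treatment was applied at the 2-leaf stage, and plants stayed in the greenhouse for twelve to sixteen days before scoring.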

[14] = system: duck salad (Heteranthera limosa); experiment: Test B flood test
Method in brief: as §3

rice (Oryza sativa) = experiment: Test B flood test
Method in brief: as §3

[15] = system: smallflower flatsedge (Cyperus difformis); experiment: Test B flood test
Method in brief: as §3

[16] = Rate 250 g/ha, Postemergence (so in the source)
[17] = Rate 62 g/ha, Postemergence (flood test)
[18] = Rate 125 g/ha, Postemergence, flood test
[19] = Rate 250 g/ha, Postemergence (flood test species)
[20] = Rate 125 g/ha, Postemergence section (flood test species)

Structure (SMILES): Cc1cnc(-c2ccccc2F)nc1Cc1cccc(C(F)(F)F)c1 [Compound 26]
- Plant response rating, Bedstraw ([1]; Rate 62 g/ha, Postemergence): 1
- Bedstraw plant response rating ([1]; Rate 62 g/ha): 0
- Plant response rating, Bedstraw ([1]; Rate 125 g/ha, Postemergence): 3
- Bedstraw plant response rating ([1]; Rate 125 g/ha): 0
- Plant response rating, Bedstraw ([1]; Rate 250 g/ha, Postemergence): 6
- Plant response rating, Bedstraw [1, 16]: 0
- Plant response rating, Blackgrass ([2]; Rate 62 g/ha, Postemergence): 0
- Blackgrass plant response rating ([2]; Rate 62 g/ha): 0
- Plant response rating, Blackgrass ([2]; Rate 125 g/ha, Postemergence): 1
- Blackgrass plant response rating ([2]; Rate 125 g/ha): 0
- Plant response rating, Blackgrass ([2]; Rate 250 g/ha, Postemergence): 1
- Plant response rating, Blackgrass [2, 16]: 0
- Plant response rating, B. signalgrass ([3]; Rate 62 g/ha, Postemergence): 1
- B. signalgrass plant response rating ([3]; Rate 62 g/ha): 0
- Plant response rating, B. signalgrass ([3]; Rate 125 g/ha, Postemergence): 1
- B. signalgrass plant response rating ([3]; Rate 125 g/ha): 0
- Plant response rating, B. signalgrass ([3]; Rate 250 g/ha, Postemergence): 2
- Plant response rating, B. signalgrass ([3]; Rate 250 g/ha, Postemergence as printed in head r139 (second section for compounds 26-50)): 1
- Plant response rating, Cocklebur ([4]; Rate 62 g/ha, Postemergence): 2
- Cocklebur plant response rating ([4]; Rate 62 g/ha): 0
- Plant response rating, Cocklebur ([4]; Rate 125 g/ha, Postemergence): 2
- Cocklebur plant response rating ([4]; Rate 125 g/ha): 0
- Plant response rating, Cocklebur ([4]; Rate 250 g/ha, Postemergence): 3
- Plant response rating, Cocklebur [4, 16]: 0
- Plant response rating, Corn (corn (Zea mays); Rate 62 g/ha, Postemergence): 1
- Corn plant response rating (corn (Zea mays); Rate 62 g/ha): 0
- Plant response rating, Corn (corn (Zea mays); Rate 125 g/ha, Postemergence): 1
- Corn plant response rating (corn (Zea mays); Rate 125 g/ha): 0
- Plant response rating, Corn (corn (Zea mays); Rate 250 g/ha, Postemergence): 1
- Plant response rating, Corn (corn (Zea mays); [16]): 0
- Plant response rating, Crabgrass ([5]; Rate 62 g/ha, Postemergence): 1
- Crabgrass plant response rating ([5]; Rate 62 g/ha): 0
- Plant response rating, Crabgrass ([5]; Rate 125 g/ha, Postemergence): 1
- Crabgrass plant response rating ([5]; Rate 125 g/ha): 0
- Plant response rating, Crabgrass ([5]; Rate 250 g/ha, Postemergence): 1
- Plant response rating, Crabgrass [5, 16]: 1
- Plant response rating, Giant foxtail ([6]; Rate 62 g/ha, Postemergence): 1
- Giant foxtail plant response rating ([6]; Rate 62 g/ha, Preemergence): 0
- Giant foxtail plant response rating ([6]; Rate 125 g/ha, Postemergence): 1
- Giant foxtail plant response rating ([6]; Rate 125 g/ha, Preemergence): 1
- Plant response rating, Giant foxtail ([6]; Rate 250 g/ha, Postemergence): 1
- Plant response rating, Giant foxtail [6, 16]: 1
- Plant response rating, Morningglory ([7]; Rate 62 g/ha, Postemergence): 3
- Morningglory plant response rating ([7]; Rate 62 g/ha, Preemergence): 0
- Morningglory plant response rating ([7]; Rate 125 g/ha, Postemergence): 3
- Morningglory plant response rating ([7]; Rate 125 g/ha, Preemergence): 0
- Plant response rating, Morningglory ([7]; Rate 250 g/ha, Postemergence): 3
- Plant response rating, Morningglory [7, 16]: 0
- Plant response rating, Redroot pigweed ([8]; Rate 62 g/ha, Postemergence): 6
- Redroot pigweed plant response rating ([8]; Rate 62 g/ha, Preemergence): 0
- Redroot pigweed plant response rating ([8]; Rate 125 g/ha, Postemergence): 6
- Redroot pigweed plant response rating ([8]; Rate 125 g/ha, Preemergence): 0
- Plant response rating, Redroot pigweed ([8]; Rate 250 g/ha, Postemergence): 8
- Plant response rating, Redroot pigweed [8, 16]: 4
- Plant response rating, Nutsedge ([9]; Rate 62 g/ha, Postemergence): 0
- Nutsedge plant response rating ([9]; Rate 62 g/ha, Preemergence): 0
- Nutsedge plant response rating ([9]; Rate 125 g/ha, Postemergence): 0
- Nutsedge plant response rating ([9]; Rate 125 g/ha, Preemergence): 0
- Plant response rating, Rape (rape (Brassica napus); Rate 62 g/ha, Postemergence): 3
- Rape plant response rating (rape (Brassica napus); Rate 62 g/ha, Preemergence): 0
- Rape plant response rating (rape (Brassica napus); Rate 125 g/ha, Postemergence): 6
- Rape plant response rating (rape (Brassica napus); Rate 125 g/ha, Preemergence): 0
- Plant response rating, Rape (rape (Brassica napus); Rate 250 g/ha, Postemergence): 6
- Plant response rating, Rape (rape (Brassica napus); [16]): 0
- Plant response rating, Soybean (soybean (Glycine max); Rate 62 g/ha, Postemergence): 3
- Soybean plant response rating (soybean (Glycine max); Rate 62 g/ha, Preemergence): 0
- Soybean plant response rating (soybean (Glycine max); Rate 125 g/ha, Postemergence): 3
- Plant response rating, Soybean (soybean (Glycine max); Rate 125 g/ha, Preemergence): 0
- Plant response rating, Soybean (soybean (Glycine max); Rate 250 g/ha, Postemergence): 5
- Plant response rating, Soybean (soybean (Glycine max); [16]): 0
- Plant response rating, Sugarbeets ([10]; Rate 62 g/ha, Postemergence): 3
- Sugarbeets plant response rating ([10]; Rate 62 g/ha, Preemergence): 0
- Sugarbeets plant response rating ([10]; Rate 125 g/ha, Postemergence): 8
- Plant response rating, Sugarbeets ([10]; Rate 125 g/ha, Preemergence): 0
- Plant response rating, Sugarbeets ([10]; Rate 250 g/ha, Postemergence): 8
- Plant response rating, Sugarbeets [10, 16]: 0
- Plant response rating, Velvetleaf ([11]; Rate 62 g/ha, Postemergence): 1
- Velvetleaf plant response rating ([11]; Rate 62 g/ha, Preemergence): 0
- Velvetleaf plant response rating ([11]; Rate 125 g/ha, Postemergence): 1
- Plant response rating, Velvetleaf ([11]; Rate 125 g/ha, Preemergence): 0
- Plant response rating, Velvetleaf ([11]; Rate 250 g/ha, Postemergence): 2
- Plant response rating, Velvetleaf [11, 16]: 0
- Plant response rating, Wheat ([12]; Rate 62 g/ha, Postemergence): 0
- Wheat plant response rating ([12]; Rate 62 g/ha, Preemergence): 0
- Wheat plant response rating ([12]; Rate 125 g/ha, Postemergence): 0
- Plant response rating, Wheat ([12]; Rate 125 g/ha, Preemergence): 0
- Plant response rating, Wheat ([12]; Rate 250 g/ha, Postemergence): 0
- Plant response rating, Wheat [12, 16]: 0
- Plant response rating, Wild oats (wild oat (Avena fatua); Rate 62 g/ha, Postemergence): 0
- Wild oats plant response rating (wild oat (Avena fatua); Rate 62 g/ha, Preemergence): 0
- Wild oats plant response rating (wild oat (Avena fatua); Rate 125 g/ha, Postemergence): 0
- Plant response rating, Wild oats (wild oat (Avena fatua); Rate 125 g/ha, Preemergence): 0
- Plant response rating, Wild oats (wild oat (Avena fatua); Rate 250 g/ha, Postemergence): 0
- Plant response rating, Wild oats (wild oat (Avena fatua); [16]): 0
- Plant response rating, Barnyardgrass [13, 17]: 0
- Plant response rating, Barnyardgrass [13, 18]: 0
- Plant response rating, Barnyardgrass [13, 19]: 2
- Plant response rating, Ducksalad [14, 17]: 0
- Plant response rating, Ducksalad [14, 18]: 0
- Plant response rating, Ducksalad [14, 19]: 0
- Plant response rating, Rice (rice (Oryza sativa); [17]): 0
- Rice plant response rating (rice (Oryza sativa); [20]): 0
- Plant response rating, Rice (rice (Oryza sativa); [19]): 0
- Plant response rating, S. Flatsedge [15, 17]: 0
- S. Flatsedge plant response rating [15, 20]: 1
- Plant response rating, S. Flatsedge [15, 19]: 2
